Test results: patent US20260297081A1, “COMPOUNDS AND METHODS OF TREATING CANCERS” (Cullgen Inc., priority 2023, published 2026)

Assays:
Format in all cases: cell-based
HCC1428 cells = test: Flow cytometric analysis of Annexin V/7-AAD stained HCC1428 cells (apoptosis), 6 days (FIG. 3B); settings: HCC1428, dose approximating IC90, 6 days
Procedure: (§1) T47D cells were treated with DMSO, palbociclib, heterobifunctional compound CPD-10 for 6 days at doses approximating IC50and IC90 concentrations as indicated (FIG. 3A). HCC1428 cells were treated with DMSO, palbociclib, heterobifunctional compound CPD-10, or its negative control compound CPD-143 for 6 days at doses approximating IC90 concentrations as indicated (FIG. 3B). Cells were harvested by trypsinization, staining was carried out using the Annexin V Apoptosis Detection Kit. The percentages of early apoptotic (Annexin V^+7-AAD^−, lower right quadrant), late apoptotic (Annexin V^+7-AAD^+, upper right quadrant) and necrotic cells (Annexin V^−7-AAD^+, upper left quadrant) are indicated on dot plots.

CDK4 = CDK4 (Homo sapiens, UniProt P11802+Q16531); test: Immunoblotting of CDK4 protein level in Calu-1 and MCF7 cells (FIG. 1A-1B); design: Cells that express cyclin D1-3 and CDK4/6 proteins were treated with heterobifunctional compounds; endogenous in cells; host or cells: Calu-1
Chain of CDK4 (P11802 2-303 limits assumed): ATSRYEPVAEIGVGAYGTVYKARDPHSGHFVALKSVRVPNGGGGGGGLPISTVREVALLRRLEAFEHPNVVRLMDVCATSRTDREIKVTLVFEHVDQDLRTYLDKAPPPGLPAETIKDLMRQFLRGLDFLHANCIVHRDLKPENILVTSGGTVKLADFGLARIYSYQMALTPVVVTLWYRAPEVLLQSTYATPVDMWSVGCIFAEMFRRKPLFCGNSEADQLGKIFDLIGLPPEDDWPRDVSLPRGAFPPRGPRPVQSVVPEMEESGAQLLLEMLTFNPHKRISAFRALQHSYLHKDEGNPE
Chain of CDK4 (P24385 whole entry partner): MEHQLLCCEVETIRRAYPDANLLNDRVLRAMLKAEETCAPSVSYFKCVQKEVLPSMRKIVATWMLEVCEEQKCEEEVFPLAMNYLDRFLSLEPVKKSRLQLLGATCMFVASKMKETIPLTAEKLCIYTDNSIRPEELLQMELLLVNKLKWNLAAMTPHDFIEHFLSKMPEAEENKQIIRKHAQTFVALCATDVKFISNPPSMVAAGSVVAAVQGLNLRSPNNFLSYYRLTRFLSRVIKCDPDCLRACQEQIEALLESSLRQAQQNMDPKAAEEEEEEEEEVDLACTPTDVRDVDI
Chain of CDK4 (Q16531 2-1140 limits assumed): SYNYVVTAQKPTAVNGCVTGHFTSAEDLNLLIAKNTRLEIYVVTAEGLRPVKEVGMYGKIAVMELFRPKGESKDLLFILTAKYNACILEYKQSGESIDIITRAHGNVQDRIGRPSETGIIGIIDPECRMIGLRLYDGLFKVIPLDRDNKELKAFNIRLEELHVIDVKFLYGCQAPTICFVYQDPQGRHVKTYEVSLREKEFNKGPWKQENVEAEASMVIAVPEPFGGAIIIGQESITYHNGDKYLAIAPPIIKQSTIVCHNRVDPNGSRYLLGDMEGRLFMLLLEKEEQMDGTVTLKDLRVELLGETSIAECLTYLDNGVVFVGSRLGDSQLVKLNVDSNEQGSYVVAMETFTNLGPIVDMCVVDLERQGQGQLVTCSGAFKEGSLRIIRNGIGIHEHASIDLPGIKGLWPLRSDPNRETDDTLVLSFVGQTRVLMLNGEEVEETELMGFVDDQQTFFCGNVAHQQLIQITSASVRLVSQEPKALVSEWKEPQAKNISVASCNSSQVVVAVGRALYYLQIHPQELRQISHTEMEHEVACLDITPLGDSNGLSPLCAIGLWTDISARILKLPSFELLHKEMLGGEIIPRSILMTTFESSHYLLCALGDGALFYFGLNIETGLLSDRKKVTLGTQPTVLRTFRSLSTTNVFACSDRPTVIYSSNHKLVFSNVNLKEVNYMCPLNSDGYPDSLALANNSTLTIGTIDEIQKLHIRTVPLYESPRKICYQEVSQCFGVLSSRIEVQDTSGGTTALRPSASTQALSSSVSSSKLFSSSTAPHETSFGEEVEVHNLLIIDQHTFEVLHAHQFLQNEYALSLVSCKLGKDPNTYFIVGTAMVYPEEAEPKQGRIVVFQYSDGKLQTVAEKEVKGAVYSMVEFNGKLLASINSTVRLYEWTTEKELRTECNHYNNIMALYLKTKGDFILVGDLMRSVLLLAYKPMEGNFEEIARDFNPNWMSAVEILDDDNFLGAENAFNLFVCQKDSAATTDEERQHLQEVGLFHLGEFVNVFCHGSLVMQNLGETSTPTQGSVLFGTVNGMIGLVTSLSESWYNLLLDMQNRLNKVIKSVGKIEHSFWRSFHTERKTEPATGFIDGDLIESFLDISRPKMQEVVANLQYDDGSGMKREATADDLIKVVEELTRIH
Procedure: (§2) Calu-1 cells were treated with heterobifunctional compound CPD-10, or CDK4/6 inhibitor palbociclib at indicated concentrations for 4 hours (FIG. 1A). MCF7 cells were deprived of serum for 2 hours followed by treatment with CPD-10, or palbociclib at indicated concentrations for 24 hours (FIG. 1B).
(§3) Antibody and Reagent Anti-cyclin D1 (29785), anti-cyclin D2 (3741S), anti-cyclin D3 (2936S), anti-CDK4 (127905), anti-CDK6 (3136S), anti-phospho-Rb (8516S), anti-FoxM1 (54365), anti-cyclinA2(4656S), anti-vinculin antibody (187995) antibodies were purchased from Cell Signaling Technology. HRP-conjugated anti-α-tubulin antibody and anti-α-GAPDH antibody were purchased from GNI. Media, and other cell culture reagents were purchased from Thermo Fisher Scientific. CellTiter-Glo Luminescent Assay kit was purchased from Promega.
(§4) Calu-1, T47D, MCF7, HCC1428 and other cells were cultured at 37° C. with 5% CO2 in RPMI 1640 or DMEM medium supplemented with 10% fetal bovine serum. Cells were authenticated using the short tandem repeat (STR) assays. Mycoplasma test results were negative. For palbo-resistant cell model, T47D cells were cultured long-term to resistance in the presence of 1 μM Palbociclib. Cells were deemed resistant when growing in the presence of Palbo at the same rate as parental cells.
(§5) Cultured cells were washed with cold PBS once and lysed in cold RIPA buffer supplemented with protease inhibitors and phosphatase inhibitors (Beyotime Biotechnology). The solutions were then incubated at 4 ? for 30 min with gentle agitation to fully lysed cells. Cell lysates were centrifuged at 13,000 rpm for 10 min at 4 ? and pellets were discarded. Total protein concentrations in the lysates were determined following BCA assays (Beyotime Biotechnology). Cell lysates were mixed with Laemmli loading buffer and heated at 99° C. for 5 min. Proteins were resolved on SDS-PAGE and visualized using Western ECL Substrate kits on a ChemiDoc MP Imaging system (Bio-Rad). Protein bands were quantitated using the Image Lab software provided by Bio-Rad.

CCND1 = test: Immunoblotting of CCND1 protein level in Calu-1 and MCF7 cells (FIG. 1A-1B)
Procedure: as §2, §3, §4, §5

MCF7 cells = test: Anti-proliferation (viability) of MCF7 cells (Table 7, FIG. 2B); settings: Homo sapiens, MCF7, MCF7 cells, 3-6 days, 10-point serial dilution; read-out: GI IC50 in MCF-7
[1] = tested on: CCND1, CCND3, and CDK4 in Calu-1 cells; test: Immunoblot of CCND1, CCND3 and CDK4 protein levels in Calu-1 cells (FIG. 1A, 4 hours); settings: Calu-1, reduction of CCND1, CCND3, and CDK4 protein levels
Procedure: Specific exemplary heterobifunctional compounds were characterized in Calu-1, MCF7, T47D and other cells. Cells that express cyclin D1-3 and CDK4/6 proteins were treated with heterobifunctional compounds disclosed herein at indicated concentrations. MCF7 cells were deprived of serum for 2 hours followed by the treatment with heterobifunctional compounds. Cells were collected, lysed and subject to immunoblotting using an antibody specific to CCND1, CCND2, CCND3, CDK4, or FoxM1, cyclin A2, or phosphorylated Rb (S807/811) proteins. Tubulin or GAPDH was used as the loading control. DMSO treatment was used as the negative control.

Calu-1 cells = test: Anti-proliferation (viability) of NSCLC Calu-1 cells, 3 days (Table 7, FIG. 2B); settings: Homo sapiens, 72 h; Calu-1 cells, 3 days, 10-point serial dilution; read-out: GI IC50 in Calu-1
Procedure, shortened: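 Cells were exposed to heterobifunctional compounds across a 10-point serial dilution, for 3 days with Calu-1 and 6 days with T47D. A negative control was included that keeps the DDB1 ligand and linker but carries a modified warhead that impairs CDK4 binding.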

T47D parental cells = test: CellTiter-Lumi cell viability assay, T47D parental cells, 6 days (FIG. 4); settings: Homo sapiens, 144 h
Procedure: Furthermore, we developed one ER^+ breast cancer T47D model with acquired resistance after long period of treatment with 1 μM palbociclib (over IC90). Cells were deemed resistant when growing in the presence of palbo at the same rate as parental cells. Palbo resistance was determined by CellTiter-Lumi cell viability assay (FIG. 4, IC50>10,000 nM).

p-Rb = test: Immunoblotting of Rb phosphorylation (FIG. 1A-1B); settings: Calu-1 (4 hours), MCF7 (24 hours)
Procedure: as §2, §3
Calu-1, T47D, MCF7, HCC1428 and other cells were cultured at 37° C. with 5% CO2 in RPMI 1640 or DMEM medium supplemented with 10% fetal bovine serum. Cells were authenticated using the short tandem repeat (STR) assays. […]
Cultured cells were washed with cold PBS once and lysed in cold RIPA buffer supplemented with protease inhibitors and phosphatase inhibitors (Beyotime Biotechnology). […] Total protein concentrations in the lysates were determined following BCA assays (Beyotime Biotechnology). […] Protein bands were quantitated using the Image Lab software provided by Bio-Rad.

CCND3 = test: Immunoblotting of CCND3 protein level in Calu-1 and MCF7 cells (FIG. 1A-1B)
Procedure: as §2, §3, §4, §5

T47D cells = test: Flow cytometric analysis of Annexin V/7-AAD stained T47D cells (apoptosis), 6 days (FIG. 3A)
Procedure: as §1

[2] = tested on: T47D palbo-resistant cells; test: Cell viability in T47D palbociclib-resistant model (FIG. 4); settings: 10-point serial dilution, 6 days
Procedure: T47D cells were cultured long-term to resistance in the presence of 1 μM Palbociclib. Palbo resistance was determined by CellTiter-Lumi cell viability assay. T47D parental or palbo-resistant cells were treated with palbociclib, or heterobifunctional compounds CPD-10 or CPD-39 following a 10-point serial dilution for 6 days.
as §4
Cells were seeded at a density of 2,000-5,000 cells per well in 96-well assay plates and treated with test compounds following a 10-point serial dilution for 3-6 days. Cell viability was determined using the CellTiter-Lumi assay kit according to the manufacturer's instructions. The dose-response curves were determined and IC50 values were calculated using the GraphPad Prism software following a nonlinear regression (least squares fit) method. Data presented was mean±standard deviation (SD)unless otherwise indicated.

[3] = MCF7 cells, serum deprived 2 hours, treated 24 hours

Question: Which “Annexin V+ population” value (HCC1428 cells) does the source give for `CNc1ccc(C(=O)Nc2ccc(N(C)C)nn2)c(NCCCCCCCNC(=O)CN2CCN(c3ccc(Nc4ncc5c(C)c(C(C)=O)c(=O)n(C6CCCC6)c5n4)nc3)CC2)n1` [CPD-10, 2-((7-(2-(4-(6-((6-acetyl-8-cyclopentyl-5-methyl-7-oxo-7,8-dihydropyrido[2,3-d]pyrimidin-2-yl)amino)pyridin-3-yl)piperazin-1-yl)acetamido)heptyl)amino)-N-(6-(dimethylamino)pyridazin-3-yl)-6-(methylamino)nicotinamide] here?
Answer: 55.8%

Question: And the CDK4 protein level (CDK4; Calu-1 cells, 4 hours)?
Answer: reduced CCND1, CCND3, and CDK4 protein levels in a concentration-dependent manner in both cell lines

Question: What about the CDK4 protein level (CDK4; [3]) of the same compound?
Answer: reduced CCND1, CCND3, and CDK4 protein levels in a concentration-dependent manner in both cell lines

Question: What about the CCND1 protein level (CCND1; Calu-1 cells, 4 hours) of the same compound?
Answer: reduced CCND1, CCND3, and CDK4 protein levels in a concentration-dependent manner in both cell lines

Question: What about the CCND1 protein level (CCND1; [3]) of the same compound?
Answer: reduced CCND1, CCND3, and CDK4 protein levels in a concentration-dependent manner in both cell lines

Question: And the IC50 (MCF7 cells)?
Answer: 50 to 100 nM

Question: What about the DC50 [1] of the same compound?
Answer: < 5 nM

Question: And the IC50 (Calu-1 cells)?
Answer: ≤ 10 nM

Question: And the IC50 (T47D parental cells)?
Answer: 19.5 nM

Question: What about the Rb phosphorylation (p-Rb) of the same compound?
Answer: inhibited downstream FoxM1 and cyclin A2 protein levels, and Rb phosphorylation in a concentration-dependent manner

Question: And the CCND3 protein level (CCND3; Calu-1 cells, 4 hours)?
Answer: reduced CCND1, CCND3, and CDK4 protein levels in a concentration-dependent manner in both cell lines

Question: And the CCND3 protein level (CCND3; [3])?
Answer: reduced CCND1, CCND3, and CDK4 protein levels in a concentration-dependent manner in both cell lines

Question: What about the “Annexin V+ population” value (T47D cells; 15 nM) of the same compound?
Answer: 20.9%

Question: What about the “Annexin V+ population” value (T47D cells; 200 nM) of the same compound?
Answer: 62.2%

Question: And the “cell viability in palbociclib-resistant model” value [2]?
Answer: remained effective in T47D palbo-resistant model
